Columns and labels:
Format in all cases: cell-based, rat
INS-1 832/3 cells [1] = assay: miRNA expression profiling of GLP-1 treated INS-1 832/3 cells (SYBR green qPCR); details: 50 nM GLP-1 for 24 hours, 16 mM glucose
Experimental: Glucagon like peptide-1 (GLP-1) exerts pleiotropic effects on pancreatic β-cell function. GLP-1 potentiates glucose-dependent insulin secretion (GDIS) in pancreatic β-cells. Chronic administration of GLP-1 also promotes insulin synthesis as well as β-cell proliferation and neogenesis, at least in animal models. The detailed underlying mechanism remains to be fully understood. […] The expression levels of 250 microRNAs in INS-1 832/3 cell cultured in the presence or absence of 50 nM GLP-1 for 24 hours were compared using quantitative reverse transcription polymerase chain reaction (RT-PCR) method.
For GLP-1 treatment, GLP-1 (7-37) amide (ABCHEM) was added in the media in the presence of 16 mM glucose for 24 hours.
For microRNA profiling, total RNA was extracted from INS-1 832/3 cells with TRIZOL reagent (Invitrogen, Carlsbad, Calif.). A total of 250 miRNA species were determined by SYBR green quantitative PCR (qPCR) method at Rossetta Inpharmatics (Seattle, Wash.). Quantitative PCR is a method used to detect relative or absolute gene expression level. All qPCR involves the use of fluorescence to detect the threshold cycle (Ct) during PCR when the level of fluorescence gives signal over the background and is in the linear portion of the amplified curve. […] In this example, the Ct value data was calculated into copy number per 10 pg total RNA using the standard curve method. […]

INS-1 832/3 cells [2] = assay: release of miRNAs from INS-1 832/3 cells into culture media (TAQMAN, normalized to U6 RNA); details: 50 nM GLP-1, after 4 or 8 hours
Experimental: INS1 832/3 cells were treated with 50 nM GLP-1 (7-37) amide (BACHEM) in RPMI 1640 with 10% FBS and 11 mM glucose in 24-well plates for 4, 8, 16, and 24 hours. Cell culture media was collected, 100 μL out of 1 mL media per sample was used for RNA extraction following the protocol for plasma samples (Mitchell et al., Proc. Natl. Acad. Sci. USA 105: 10513-10518). Briefly, RNA isolation was performed using the mirVana PARIS kit following the manufacturer's protocol (Ambion), except that samples were extracted twice with acid phenol-chloroform. The average of about 80 μL of eluate was recovered from each extraction. A fixed volume of 1.67 μL of the RNA eluate was used as input into the reverse transcription reaction. RNA was reverse transcribed using the TAQMAN miRNA Reverse Transcription Kit and miRNA-specific stem-loop primers in 5 μL volume (Applied BioSystems). About 2.25 μL of diluted PCR product (combining 5 μL RT product with 28.9 μL H2O) was added to 2.75 μL of PCR assay reagents to generate a PCR of 5 μL of total volume. The relative miRNA levels were determined by real-time RT-PCR using the ABI PRISM 7900 Sequence Detection System from Applied Biosystems (Foster City, Calif.) through 40 cycles as described in Example 2. TAQMAN reagents were purchased from Applied Biosystems (Foster City, Calif.). […]

INS-1 832/3 cells [3] = assay: glucose dependent insulin secretion (GDIS) assay in INS-1 832/3 cells; details: 16 mM glucose, two-hour incubation in KRB
Excerpt: We overexpressed the precursors of miR-132 and miR-212 to evaluate their possible contribution to β-cell function. MicroRNA miR-375 was included as a control as it been reported to have an inhibitory effect on GDIS (Poy et al., Nature 432: 226-230 (2004)). Chemically modified Pre-miR™ miRNA precursor molecules and Anti-miR™ miRNA inhibitors were purchased from Ambion (Foster City, Calif.). miRCURY LNA™ microRNA knockdown oligonucleotides were purchased from Exiqon (Woburn, Mass.). The oligonucleotide molecules were delivered to the cells by the Nucleofector Device (Amaxa, Gaithersburg, Md.). In brief, INS-1 cells were trypsinized, centrifuged, and resuspended in 100 μl Nucleofector solution V. Then 100-500 pmole RNA oligonucleotides were transfected to 3-million cells at the concentration of 1-5 μM with the Amaxa Nucleofector Device. Scramble controls from the vendors were used with the same transfection method. After electroporation, the cells were transferred to regular culture medium and then split into replicates in 96-well plates. Insulin secretion assay or LANCE cAMP assay were performed 48 hours post electroporation.
INS-1 cell glucose dependent insulin secretion (GDIS) assay was performed as follows. The GDIS assay was performed with cells grown to near confluency in 96-well plates. Prior to the assay, cells were washed once with PBS and pre-incubated for two hours in freshly prepared Krebs-Ringer Bicarbonate (KRB) medium without glucose. The medium were then replaced with KRB with 2, 8 or 16 mM glucose or along with 10 nM GLP-1. The cells were incubated for another two hours in a CO2 incubator. The media was then removed at the end of incubation, and assayed for insulin levels by Ultra-sensitive Rat Insulin ELISA kit (ALPCO, Salem, N.H.) or insulin immunoassay by Gyrolab workstation (GYROS AB, Uppsala, Sweden). Intracellular insulin was extracted by acid ethanol method for measuring intracellular insulin content. Total protein was measured by Pierce 660 nm Protein Assay from Pierce Biotechnology, Inc. (Rockford, Ill.).

GLP-1 (7-37) amide
expression of miR-375, miR-9 and miR-124a (INS-1 832/3 cells [1]): no significant changes
miR-132 in the medium compared to vehicle (INS-1 832/3 cells [2]): remained unchanged
miR-212 in the medium compared to vehicle (INS-1 832/3 cells [2]): remained unchanged
increase of insulin secretion upon treatment with GLP-1 (INS-1 832/3 cells [3]): greater than 300%

— patent US20120034608A1, “MICRORNA AS A BIOMARKER OF PANCREATIC ISLET BETA-CELL ENGAGEMENT” (Merck Sharp & Dohme Corp., priority 2009, published 2012)
